20 compounds from patent publication US6512000B1, “Aminocarbonyl-substituted benzimidazoles having tryptase-inhibitory activity” (Boehringer Ingelheim Pharma KG, priority 1999, dated 2003) can be followed below.

Where a name gives a salt, the structure may show the parent alone. Bounds are passed on as bounds.

For orientation: IC50 means the concentration that gives 50% inhibition. Low readings indicate inhibition by little substance, high ones a need for much substance. Broadly, the inhibition is the percentage by which the read-out fell short of the control. Low readings indicate a response near the control, high ones a response far below the control. The melting point is the temperature, or range, at which the solid turns liquid.

The first series deals with T1, rh beta tryptase (Homo sapiens, UniProt P20231).
T1 construct: purchased Promega
T1 sequence (P20231 31-275): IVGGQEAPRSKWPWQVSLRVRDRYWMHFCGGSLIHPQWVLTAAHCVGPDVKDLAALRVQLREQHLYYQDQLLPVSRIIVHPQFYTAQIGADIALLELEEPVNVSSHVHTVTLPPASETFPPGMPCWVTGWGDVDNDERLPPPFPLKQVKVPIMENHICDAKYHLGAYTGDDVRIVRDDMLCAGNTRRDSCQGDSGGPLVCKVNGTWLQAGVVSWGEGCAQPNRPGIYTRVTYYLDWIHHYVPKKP
Description: Tryptase inhibition test (cleavage of N-p-tosyl-Gly-Pro-Lys-para-nitroaniline, p-nitroaniline measured at 405 nm). The note with it: concentration at which 50% of the tryptase enzyme activity is inhibited; substrate 0.6 mM, pH 7.4, 37° C. Format: biochemical. The essentials:
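Recombinant human beta tryptase (0.91 U/ml) in 100 mM Tris HCl pH 7.4 with 5 mM calcium and 100 mg/ml heparin; compounds pre-incubated 5 min, then 0.6 mM tosyl-Gly-Pro-Lys-pNA added, 5 min at 37 °C. p-Nitroaniline read at 405 nm; % inhibition at 10 μM, IC50 determined when inhibition exceeded 70%.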
In turn, `CCCCN(Cc1ccc(CN)cc1)C(=O)c1ccc2c(c1)nc(CCc1ccc(C(=N)N)cc1)n2CCCOCC` [Example 86, 2-[2-(4-amidinophenyl)ethyl]-1-(3-ethoxypropyl)-benzimidazol-5-yl-carboxylic acid-N-[4-(amino-methyl)-benzyl]-N-n-butyl-amide] registered a half-inhibitory concentration (IC50) of 135 nM.

For the compound `CCOCCCn1c(CCc2ccc(C(=N)N)cc2)nc2cc(C(=O)N(CCCc3ccccc3)Cc3ccc(CN)cc3)ccc21` [Example 166, 2-[2-(4-amidinophenyl)ethyl]-1-(3-ethoxypropyl)-benzimidazol-5-yl-carboxylic acid-N-[4-(amino-methyl)-benzyl]-N-(3-phenylpropyl)-amide], inhibition was half-maximal at 274 nM (IC50). This IC50 lies about 2-fold higher than the previous one.

The series is the same for the next values; noted with them: inhibition of rh beta tryptase at 10 μM test substance; substrate N-p-tosyl-Gly-Pro-Lys-para-nitroaniline 0.6 mM, pH 7.4, 37° C., 5 minutes.
The compound `COc1cccc(CN(Cc2ccc(CN)cc2)C(=O)c2ccc3c(c2)nc(CCc2ccc(C(=N)N)cc2)n3CCc2ccccc2)c1` [Example 75, 2-[2-(4-amidinophenyl)ethyl]-1-(2-phenyl-ethyl)-benzimidazol-5-yl-carboxylic acid-N-[4-(amino-methyl)-benzyl]-N-(3-methoxybenzyl)-amide] had an inhibition at 10 µM of 60%.

The compound `CCCCN(Cc1ccc(CN)cc1)C(=O)c1ccc2c(c1)nc(CCc1ccc(C(=N)N)cc1)n2CCCOCC` [Example 86, 2-[2-(4-amidinophenyl)ethyl]-1-(3-ethoxypropyl)-benzimidazol-5-yl-carboxylic acid-N-[4-(amino-methyl)-benzyl]-N-n-butyl-amide] returned an inhibition at 10 µM of 72%.

“2-[2-(4-amidinophenyl)ethyl]-1-[3-(benzylcarbonylamino)-propyl]-benzimidazol-5-yl-carboxylic acid-N-(2-aminoethyl)-N-(2-pyridyl)-amide [Example 312]”: the “% Inhibition (10 μM)” value was 55%.

Take `N=C(N)c1ccc(CCc2nc3cc(C(=O)N(Cc4ccc(CN)cc4)CC4CCCCC4)ccc3n2CCCN2CCOCC2)cc1` [Example 161, 2-[2-(4-amidinophenyl)ethyl]-1-[3-(morpholin-4-yl)-propyl]-benzimidazol-5-yl-carboxylic acid-N-[4-(amino-methyl)-benzyl]-N-cyclohexylmethyl-amide]: the inhibition at 10 µM is 56%.

`N=C(N)c1ccc(CCc2nc3cc(C(=O)N(Cc4ccc(CN)cc4)Cc4ccc5ccccc5c4)ccc3n2CCc2ccccc2)cc1` [Example 235, 2-[2-(4-amidinophenyl)ethyl]-1-(2-phenylethyl)-benzimidazol-5-yl-carboxylic acid-N-[4-(amino-methyl)-benzyl]-N-(2-naphthylmethyl)-amide] gave an inhibition at 10 µM of 52%.

Turning to `N=C(N)c1ccc(CCc2nc3cc(C(=O)N(Cc4ccc(Cl)cc4)Cc4ccc(CN)cc4)ccc3n2CC2CC2)cc1` [Example 186, 2-[2-(4-amidinophenyl)ethyl]-1-cyclopropylmethyl-benzimidazol-5-yl-carboxylic acid-N-[4-(amino-methyl)-benzyl]-N-(4-chlorbenzyl)-amide], the “% Inhibition (10 μM)” value was 60%.

Turning to `COc1cccc(CN(Cc2ccc(CN)cc2)C(=O)c2ccc3c(c2)nc(CCc2ccc(C(=N)N)cc2)n3CCCN2CCOCC2)c1` [Example 81, 2-[2-(4-amidinophenyl)ethyl]-1-[3-(morpholin-4-yl)-propyl]-benzimidazol-5-yl-carboxylic acid-N-[4-(amino-methyl)-benzyl]-N-(3-methoxybenzyl)-amide], the inhibition at 10 µM was determined as 69%.

“2-[2-(4-amidinophenyl)ethyl]-1-{3-[4-(2-methylphenyl)-piperazin-1-yl]-propyl}-benzimidazol-5-yl-carboxylic acid-N-[4-(amino-methyl)-benzyl]-N-(2-pyridyl)-amide [Example 128]”: the “% Inhibition (10 μM)” value was 51%.

As to `CCOCCCn1c(CCc2ccc(C(=N)N)cc2)nc2cc(C(=O)N(CCCc3ccccc3)Cc3ccc(CN)cc3)ccc21` [Example 166, 2-[2-(4-amidinophenyl)ethyl]-1-(3-ethoxypropyl)-benzimidazol-5-yl-carboxylic acid-N-[4-(amino-methyl)-benzyl]-N-(3-phenylpropyl)-amide], the inhibition at 10 µM was found to be 57%.

Test system in a further series: not given
Assay: not given
Details: not given
Turning to `CN(Cc1ccc(C(=N)N)cc1)C(=O)c1ccc2c(c1)nc(CCc1ccc(C(=N)N)cc1)n2C` (as salt: hydrochloride) [Example 4, 2-[2-(4-Amidinophenyl)-ethyl]-1-methyl-benzimidazol-5-yl-carboxylic Acid-N-(4-amidino-benzyl)-N-methyl-amide-trihydrochloride], the melting point was > 220 °C.

`CCOC(=O)C(Cc1ccc(C(=N)N)cc1)N(C)C(=O)c1ccc2c(c1)nc(CCc1ccc(C(=N)N)cc1)n2C` (stereo not shown) (as salt: formate) [Example 29, Ethyl 2-{2-[2-(4-Amidinophenyl)-ethyl]-1-methyl-benzimidazol-5-yl-carbonyl-(methylamino)}-3-(4-amidinophenyl)-propionate-formate] had a melting point of 230 °C.

`Cn1c(CCc2ccc(CN)cc2)nc2cc(C(=O)NCCC(c3ccccc3)c3ccccc3)ccc21` (as salt: hydrochloride) [Example 40, 2-[2-(4-Aminomethyl-phenyl)-ethyl]-1-methyl-benzimidazol-5-yl-carboxylic Acid-N-(3,3-diphenylpropyl)-amide-dihydrochloride]: the melting point is 140 °C.

In turn, `Cn1c(CCc2ccc(C(=N)N)cc2)nc2cc(C(=O)NC(Cc3ccc(C(=N)N)cc3)C(=O)O)ccc21` (stereo not shown) [Example 30, 2-{2-[2-(4-Amidinophenyl)-ethyl]-1-methyl-benzimidazol-5-yl-carbonylamino}-3-(4-amidinophenyl)-propionic Acid-diformate] registered a melting point of 165 °C.

Regarding `CN(C(=O)c1ccc2c(c1)nc(CCc1ccc(C(=N)N)cc1)n2C)c1cccnc1` (as salt: hydrochloride) [Example 18, 2-[2-(4-Amidinophenyl)-ethyl]-1-methyl-benzimidazol-5-yl-carboxylic Acid-N-methyl-N-(3-pyridyl)-amide-hydrochloride], the melting point is > 220 °C.

Take `Cn1c(CCc2ccc(C(=N)N)cc2)nc2cc(C(=O)N(CCC(=N)N)C3CCCCCCC3)ccc21` (as salt: hydrochloride) [Example 25, 2-[2-(4-Amidinophenyl)-ethyl]-1-methyl-benzimidazol-5-yl-carboxylic Acid-N-(2-amidinoethyl)-N-cyclooctyl-amide-dihydrochloride]: the melting point is 200 to 210 °C.

`Cn1c(CCc2ccc(C(=N)N)cc2)nc2cc(C(=O)NCCC(c3ccccc3)c3ccccc3)ccc21` (as salt: hydrochloride) showed a melting point of 185 °C.

`CC(C)CN(CCC(=N)N)C(=O)c1ccc2c(c1)nc(CCc1ccc(C(=N)N)cc1)n2C` (as salt: hydrochloride) [Example 11, 2-[2-(4-Amidinophenyl)-ethyl]-1-methyl-benzimidazol-5-yl-carboxylic Acid-N-(2-amidinoethyl)-N-iso-butyl-amide-dihydrochloride] registered a melting point of 204 to 210 °C.

Regarding `Cn1c(CCc2ccc(C(=N)N)cc2)nc2cc(C(=O)N(CCC(=N)N)Cc3cnc4ccccc4c3)ccc21` (as salt: hydrochloride) [Example 8, 2-[2-(4-Amidinophenyl)-ethyl]-1-methyl-benzimidazol-5-yl-carboxylic Acid-N-(2-amidinoethyl)-N-(quinolin-3-yl-methyl)-amide-dihydrochloride], the melting point was > 220 °C.

As to `Cn1c(CCc2ccc(C(=N)N)cc2)nc2cc(C(=O)N(CCC(=N)N)Cc3cccnc3)ccc21` (as salt: hydrochloride) [Example 10, 2-[2-(4-Amidinophenyl)-ethyl]-1-methyl-benzimidazol-5-yl-carboxylic Acid-N-(2-amidinoethyl)-N-(3-pyridylmethyl)-amide-dihydrochloride], the melting point was 225 to 228 °C.

In the case of `Cl.Cl.Cl.Cn1c(CCc2ccc(CN)cc2)nc2cc(C(=O)NCCNc3ccccc3)ccc21`, the melting point is > 220 °C.
